# Data from patent US10906938B2, “Cell epitopes and combination of cell epitopes for use in the immunotherapy of myeloma and other cancers” (Immatics Biotechnologies GmbH, priority 2015, dated 2021).
# System: U266 cells
# Assay: HLA class I ligand presentation upon carfilzomib treatment on U266 cells (LC-MS/MS)
# Assay type: cell-based, human
# Parameters: key to modulation upon carfilzomib-treatment 24 #1 / modulation upon carfilzomib-treatment 24 #2 / modulation upon carfilzomib-treatment 24 #3 / modulation upon carfilzomib-treatment 48 #1 / modulation upon carfilzomib-treatment 48 #2 / modulation upon carfilzomib-treatment 48 #3: −1: significantly down-modulated; 0: not signifcant/not detected; 1: significantly up-modulated
# Conditions: U266 cells, vs mock-treated controls; for modulation upon carfilzomib-treatment 24 #1 / modulation upon carfilzomib-treatment 24 #2 / modulation upon carfilzomib-treatment 24 #3: 24 h after carfilzomib treatment (100 nM, 1 h); for modulation upon carfilzomib-treatment 24 #1 / modulation upon carfilzomib-treatment 48 #1: biological replicate #1; for modulation upon carfilzomib-treatment 24 #2 / modulation upon carfilzomib-treatment 48 #2: biological replicate #2; for modulation upon carfilzomib-treatment 24 #3 / modulation upon carfilzomib-treatment 48 #3: biological replicate #3; for modulation upon carfilzomib-treatment 48 #1 / modulation upon carfilzomib-treatment 48 #2 / modulation upon carfilzomib-treatment 48 #3: 48 h after carfilzomib treatment (100 nM, 1 h)
# Method: HLA class I and II molecules were isolated using standard immunoaffinity purification as described using the pan-HLA class I specific mAb W6/32, the pan-HLA class II specific mAb T039 and the HLA-DR specific mAB L243 (produced in house).
# HLA ligand extracts were analyzed in 5 technical replicates as described previously. In brief, peptide samples were separated by nanoflow HPLC (RSLCnano, ThermoFisher) using a 50 μm×25 cm PepMap RSLC column (Thermo Fisher) and a gradient ranging from 2.4 to 32.0% acetonitrile over the course of 90 min. Eluting peptides were analyzed in an online coupled LTQ Orbitrap XL mass spectrometer (Thermo Fisher) using a top 5 CID (collision induced dissociation) fragmentation method.
# Data processing was performed as described previously. In brief, the Mascot search engine (Mascot 2.2.04; Matrix Science, London, UK) was implemented to search the human proteome as comprised in the Swiss-Prot database (20,279 reviewed protein sequences, September 2013) without enzymatic restriction. Potential mutated HLA ligands were searched implementing a database containing the human proteome concatenated with proteins containing single amino acid variants (SAVs) listed in the COSMIC database (http://cancer.sanger.ac.uk/cosmic/). Only recurrent SAVs described in 2 or more samples of hematological origin were included. Oxidized methionine was allowed as a dynamic modification. The false discovery rate was estimated using the Percolator algorithm and set to 5%. Peptide lengths were limited to 8-12 amino acids for HLA class I and 12-25 amino acids for HLA class II. Protein inference was disabled, allowing for multiple protein annotations of peptides. HLA annotation was performed using SYFPEITHI [46] or an extended in-house database. Experimental validation of peptide identifications and HLA annotations was performed by mass spectrometric and functional characterization of synthetic peptides for a subset of peptides.
# The inventors quantitatively assessed HLA class I ligand presentation during proteasome inhibitor therapy. Observed was a considerable plasticity of the HLA class I ligandome after treatment with carfilzomib with 17.9±1.1% of MM.1S ligands and 11.2±0.7% of U266 ligands (mean of three biological replicates ±s.d.) showing significant modulation (fold-change ≥4, Po0.01 after Benjamini-Hochberg correction) at t24 h compared with mock-treated controls. Briefly, Cultured MCLs (MM.1S and U266) and primary myeloma samples were incubated with carfilzomib (100 nM, Kyprolis®, available, e.g., from Onyx Pharmaceuticals, Inc.) as an example for a proteasome inhibitor for a 1-h period, followed by three washes in PBS (Gibco) and recultured for additional 24 or 48 h. Controls were incubated with vehicle control (glucose 5%) for 1 h, followed by identical washing and incubation for 24 or 48 h. Experiments were conducted in three biological replicates where indicated.
Sequence,modulation upon carfilzomib-treatment 24 #1,modulation upon carfilzomib-treatment 24 #2,modulation upon carfilzomib-treatment 24 #3,modulation upon carfilzomib-treatment 48 #1,modulation upon carfilzomib-treatment 48 #2,modulation upon carfilzomib-treatment 48 #3
KILKPVKKK,0,0,0,0,0,0
FLWDEGFHQL,0,0,0,0,0,0
RPFHGWTSL,0,0,0,0,0,0
LLFPYILPPK,0,0,0,0,0,0
KEGLILPETL,1,1,0,0,0,0
GPRPITQSEL,0,0,0,0,0,0
ILRDGITAGK,0,0,0,0,0,0
RVNKVIIGTK,0,0,0,0,0,0
AEQEIARLVL,0,0,0,0,0,0
KLSSLIILM,0,0,0,0,0,0
KAVNPGRSL,0,0,0,0,0,0
REEGTPLTL,0,0,0,0,0,0
YLYITKVLK,0,0,0,0,0,0
SVYSPVKKK,0,0,−1,0,0,0
IIFDRPLLY,0,0,0,0,0,−1
RQFWTRTKK,0,0,0,0,0,0
IESHPDNAL,0,0,0,0,0,0
ALWGRTTLK,0,0,0,0,0,0
SPYLRPLTL,0,0,0,0,0,0
SRGDFVVEY,0,−1,0,0,0,−1
GEVQDLLVRL,0,0,0,0,0,0
RPRPPVLSV,0,0,0,0,0,0
